Assay results taken from patent publication US20250041479A1, “PHOTO-ENZYMATIC PRINTING” (The Board of Trustees of the Leland Stanford Junior …, priority 2021, published 2025).

Assays:
Format in all cases: physicochemical
[1] = Razo cis-trans conversion using light (UV-Vis absorbance spectra)
Procedure: (§1) Razo as a stock solution of 70 mM in DMSO was diluted to 25 μM Razo in buffer (20 mM Tris-HCl, pH 7.4, 40 mM KCl). Absorbance spectra were acquired on a PerkinElmer UV-Vis spectrometer and sample illumination light was from a Lumencor Aura light engine, with a Blue light output centered on 475 nm with 28 nm bandpass filter and UV light output centered on 360 nm with a 28 nm bandpass filter. cis-Razo and trans-Razo Absorbance spectra shapes agreed with those from the paper where Razo was originally developed (Wang, et al. Angew. Chem., Int. Ed. 2010, 49, 5305). We aimed to characterize several features of the isomerization that are relevant to inform printing parameters for patterning of the substrate: light kinetics, dark kinetics, and durability.
After a long Blue (referred to as ‘visible’ in legend) light exposure to drive Razo to a trans dominated photostationary state, the amount of UV light necessary to drive Razo to the cis dominated photostationary state was determined to be roughly 10 seconds at 25% power (approximately 15 mW/cm^2).
After a long UV light exposure to drive Razo to a cis dominated photostationary state, the amount of Blue light necessary to drive Razo to the trans dominated photostationary state was determined to be roughly 10 seconds at 50% power (approximately 50 mW/cm^2).

[2] = Razo cis-trans thermal conversion in the dark; settings: after long UV exposure, kept in the dark for 15 minutes
Procedure: as §1
After a long UV exposure to drive Razo to the cis dominated photostationary state, the sample was kept in the dark for 15 and 90 minutes.

[3] = Durability of the Razo cis-trans interconversion; settings: blue then UV to photostationary states, repeated 15 times
Procedure: as §1
Blue light was applied until the trans-dominated photostationary state was reached (blue curve in FIG. 5). Then UV light was applied until the cis-dominated photostationary state was reached (purple curve in FIG. 5).

With `C[N+]1(CCOc2ccc(/N=N/c3ccc(OCC[N+]4(C)CCCCC4)cc3)cc2)CCCCC1` [Razo] the “amount of UV light necessary to drive Razo to the cis dominated photostationary state” value ([1]; 25 μM Razo in buffer (20 mM Tris-HCl, pH 7.4, 40 mM KCl), after long Blue exposure, UV 360 nm at 25% power (approximately 15 mW/cm^2)) was “roughly 10 seconds”, the “amount of Blue light necessary to drive Razo to the trans dominated photostationary state” value ([1]; 25 μM Razo in buffer, after long UV exposure, Blue 475 nm at 50% power (approximately 50 mW/cm^2)) was “roughly 10 seconds” and the “relaxation of cis to trans in the dark” value [2] was “almost no relaxation of cis to trans”. The “isomerization efficiency over repeated blue/UV cycles” value [3] was “isomerization efficiency is maintained over 15 cycles”.
